Reference: patent US20030091627A1, “Rate-controlled delivery of macrolides” (priority 2001, published 2003)
In brackets after ≈: the same amount, converted by molar mass.

Columns and labels:
[1] = Solubility of clarithromycin as a function of pH (tested in water without a buffer); assay type: physicochemical
[2] = Solubility of clarithromycin along the gastrointestinal tract; assay type: physicochemical
[3] = acidic pH; cited from earlier work

CC[C@H]1OC(=O)[C@H](C)[C@@H](O[C@H]2C[C@@](C)(OC)[C@@H](O)[C@H](C)O2)[C@H](C)[C@@H](O[C@@H]2O[C@H](C)C[C@H](N(C)C)[C@H]2O)[C@](C)(OC)C[C@@H](C)C(=O)[C@H](C)[C@@H](O)[C@]1(C)O [Clarithromycin]
solubility ([1]; aqueous buffer, pH 2.4, water without a buffer, read-out: Solubility): ~10000 µg/mL (≈ 13.4 mM) | solubility ([1]; aqueous buffer, pH 5.4, water without a buffer, read-out: Solubility): ~5500 µg/mL (≈ 7.35 mM) | solubility ([1]; pH 7.4, water without a buffer): about negligible | solubility ([2]; colon, pH 7.5 to 8.5): about insoluble | solubility ([2]; duodenum (region of the gastrointestinal tract), read-out: Solubility): 5000 µg/mL (≈ 6.68 mM) | solubility ([2]; stomach (region of the gastrointestinal tract), read-out: Solubility): 10000 µg/mL (≈ 13.4 mM) | Stability [3]: stable at an acidic pH
